Source: patent publication US5189169A (priority 1991, dated 1993)
Where “and” joins values, the source holds several entries; their conditions need not be identical. Identical values can stand only once.

How the values were obtained:
yellow nutsedge [1] = system: yellow nutsedge; set-up: species or system Cyperus esculentus; conditions: in vivo
[2] = system: three grassy weeds (wild oat, watergrass, foxtail); set-up: species or system Avena fatua, Echinochloa crusgalli, Setaria viridis; conditions: in vivo
yellow nutsedge [3] = system: yellow nutsedge; set-up: species or system Cyperus esculentus; conditions: in vivo; remark: listed apart in the source
[4] = system: three grassy weeds (wild oat, watergrass, foxtail); set-up: species or system Avena fatua, Echinochloa crusgalli, Setaria viridis; conditions: in vivo; remark: listed apart in the source
[5] = system: three broadleaf weeds (morning glory, mustard, velvetleaf); set-up: species or system Ipomoea purpurea, Brassica kaber, Abutilon theophrasti; conditions: in vivo
[6] = system: three broadleaf weeds (morning glory, mustard, velvetleaf); set-up: species or system Ipomoea purpurea, Brassica kaber, Abutilon theophrasti; conditions: in vivo; remark: listed apart in the source
[7] = system: four grassy weeds: wild oat, watergrass, green foxtail and crabgrass; assay: Post-emergence herbicidal activity, grassy weeds (Table III); type: in vivo; conditions: 2.24 kg/ha, 2-3 weeks after treatment
Description: (§1) The herbicidal effect was observed by comparing the extent of weed control in test flats treated with the compounds against that occurring in similar non-treated control flats. All were applied at 3.57 lb/A (4 kg/ha) to pre-emergence and post-emergence screening flats. An 80 gal/A (748.3 1/ha) spray volume was utilized. Post-emergence flats were seeded 12 days prior to treatment. Pre-emergence flats were seeded one day prior to treatment. Overhead watering of pre-emergence flats and soil surface watering of post-emergence flats, so as to avoid wetting the foliage, were carried out for the duration of the test.
(§2) Weed seeds were planted in a flat at a seed depth of 0.5 inch (1.3 cm). Soil for flats was prepared using loam soil fortified with 17-17-17 fertilizer (N-P2 O5 -K2 O on a weight basis) and Captan 80W fungicide. The test weeds were as follows:
(§3) The spray solutions were prepared by dissolving 240 mg of test compound in 20 ml of acetone containing 1% polyoxyethylene sorbitan monolaurate emulsifier, then adding 20 ml of water to the resulting solution. The spray solutions were applied using a linear spray table. Pre-emergence flats are raised to the level of the post-emergence foliage canopy by setting the flats on a wooden block.
(§4) The degree of weed control was visually assessed and recorded as percentage control compared to the growth of the same species in an untreated check flat of the same age. The rating scale ranges from 0 to 100%, where 0 equals no effect with plant growth equal to the untreated control, and 100 equals complete kill.
(§5) Compounds 68 to 145 in Table I were tested generally similarly to Compounds No. 1 to 67 with the following differences: The rate of application was 2 lb/acre (2.24 kg/ha), no 6-day evaluations were made, and the weeds were:
(§6) Four grassy weeds: wild oat, watergrass, green foxtail and crabgrass (Digitaria sanguinalis);
(§7) Ratings were taken 2-3 weeks after treatment.

[8] = system: three broadleaf weeds: wild mustard, redroot pigweed and curly dock; assay: Pre-emergence herbicidal activity, broadleaf weeds (Table III); type: in vivo, Brassica kaber, Amaranthus retroflexus, Rumex crispus; conditions: 2.24 kg/ha, 2-3 weeks after treatment
Description: as §1, §2, §3, §4, §5
(§8) Three broadleaf weeds: wild mustard, redroot pigweed (Amaranthus retroflexus) and curly dock (Rumex crispus).
as §7

[9] = system: three broadleaf weeds: wild mustard, redroot pigweed and curly dock; assay: Post-emergence herbicidal activity, broadleaf weeds (Table III); type: in vivo, Brassica kaber, Amaranthus retroflexus, Rumex crispus; conditions: 2.24 kg/ha, 2-3 weeks after treatment
Description: as §1, §2, §3, §4, §5, §8, §7

[10] = system: four grassy weeds: wild oat, watergrass, green foxtail and crabgrass; assay: Pre-emergence herbicidal activity, grassy weeds (Table III); type: in vivo; conditions: 2.24 kg/ha, 2-3 weeks after treatment
Description: as §1, §2, §3, §4, §5, §6, §7

Row | SMILES | % Control, Pre-emergence, NS (yellow nutsedge [1]) | % Control, Post-emergence, GR avg. [2] | % Control, Post-emergence, NS (yellow nutsedge [3]) | % Control, Pre-emergence, GR avg. [4] | % Control, Pre-emergence, BL avg. [5] | % Control, Post-emergence, BL avg. [6] | % Control, Post-Emergence, GR Avg. [7] | % Control, Pre-Emergence, BL Avg. [8] | % Control, Post-Emergence, BL Avg. [9] | % Control, Pre-Emergence, GR Avg. [10]
1 | CCCSP(=O)(N(CCC)CCC)N(C)c1cc(OC)cc(OC)c1 (centres unmarked) [Compound 43] | 0% | 10% | 0% | 0% | 0% |  |  |  |  | 
2 | CCCSP(=O)(N(CCC)CCC)N(C)c1ccc(Br)cc1Br (centres unmarked) [Compound 37] | 0% | 20% and 10% | 0% | 0% | 0% | 80% and 83% |  |  |  | 
3 | CCCSP(=O)(N(CCC)CCC)N(CCC)c1ccc(Cl)cc1C (centres unmarked) [Compound 61] | 0% | 50% and 38% | 0% | 0% | 3% | 80% and 76% |  |  |  | 
4 | CCCCCN(CCCCC)P(=O)(SCCC)N(C)c1ccccc1C (centres unmarked) [Compound 15] | 0% | 50% and 47% | 5% and 0% | 0% | 0% | 80% and 60% |  |  |  | 
5 | CCCN(CCC)P(=O)(Sc1ccc(Cl)c(Cl)c1)N(CCC)CCC [Compound 9] | 0% | 50% and 47% | 0% | 0% | 0% | 50% and 83% |  |  |  | 
6 | CCCSP(=O)(N(CCC)CCC)N(CCC)c1ccc(C(C)C)cc1 (centres unmarked) [Compound 59] | 0% | 10% and 6% | 0% | 0% | 0% | 50% and 55% |  |  |  | 
7 | CCCCN(CCCC)P(=O)(SCCC)N(C)c1ccc(OC)cc1 (centres unmarked) [Compound 11] | 9% | 30% and 50% | 10% and 0% | 0% | 0% | 60% and 70% |  |  |  | 
8 | CCCSP(=O)(N(C)c1ccc(F)cc1)N(C)c1ccc(F)cc1 [Compound 45] | 0% | 50% and 75% | 0% and 10% | 0% | 0% | 90% and 92% |  |  |  | 
9 | CCCSP(=O)(N(CCC)CCC)N(C)c1ccc(OC)c(OC)c1 (centres unmarked) [Compound 42] | 0% | 20% and 23% | 0% | 0% | 0% | 50% and 83% |  |  |  | 
10 | CCCCN(CCCC)P(=O)(SCCC)N(C(C)C)C(C)C (centres unmarked) [Compound 28] | 0% | 10% and 7% | 0% | 0% | 0% |  |  |  |  | 
11 | CCCSP(=O)(N(CCC)CCC)N(C)c1ccccc1F (centres unmarked) [Compound 33] | 0% | 5% and 0% | 0% | 0% | 0% |  |  |  |  | 
12 | CCCSP(=O)(N(CCC)CCC)N(C)c1ccc(F)c(Cl)c1 (centres unmarked) [Compound 31] | 0% | 10% and 5% | 0% | 0% | 0% |  |  |  |  | 
13 | CCCCN(CC)P(=O)(SC(C)CC)N(CCC)CCC (centres unmarked) [Compound 114] |  |  |  |  |  |  | 56% | 0% | 93% | 0%
14 | CCCN(CCC)P(=O)(SC(C)CC)N1CC(CC)CCC1C (centres unmarked) [Compound 98] |  |  |  |  |  |  | 61% | 33% | 90% | 0%
15 | CCCN(CCC)P(=O)(Sc1ccccc1)N(CCC)CCC [Compound 78] |  |  |  |  |  |  | 50% | 0% | 98% | 0%
16 | CCCCN(CCCC)P(=O)(SCCC)N(CC)CC (centres unmarked) [Compound 85] |  |  |  |  |  |  | 89% | 10% | 99% | 12%
17 | CCCCN(CCCC)P(=O)(SCCC)N(CCC)CCC (centres unmarked) [Compound 124] |  |  |  |  |  |  | 67% | 0% | 79% | 0%
18 | CCCN(CCC)P(=O)(SCC)N1CC(CC)CCC1C (centres unmarked) [Compound 96] |  |  |  |  |  |  | 65% | 10% | 67% | 0%
19 | CCCCSP(=O)(N(CC)CCCC)N(CCC)CCC (centres unmarked) [Compound 90] |  |  |  |  |  |  | 86% | 7% | 100% | 0%
20 | CCCCN(CCCC)P(=O)(SC1CCCCC1)N(C)C (centres unmarked) [Compound 117] |  |  |  |  |  |  | 50% | 0% | 77% | 0%
21 | CCCSP(=O)(N(CC)CC)N(C(C)C)C(C)C (centres unmarked) [Compound 29] | 0% | 10% and 7% | 0% | 0% | 0% |  |  |  |  | 
22 | CCCCSP(=O)(N(CC)CC)N(CCCC)CCCC (centres unmarked) [Compound 86] |  |  |  |  |  |  | 77% | 7% | 99% | 5%
23 | CCCSP(=O)(N(CCC)CCC)N(C)c1ccccc1 (centres unmarked) [Compound 27] | 0% | 20% and 40% | 0% and 5% | 0% | 0% |  |  |  |  | 
24 | CCCSP(=O)(N(CCC)CCC)N(C)c1ccc(F)cc1 (centres unmarked) [Compound 32] | 0% | 10% and 3% | 0% | 0% | 0% |  |  |  |  | 
25 | CCCCN(CCCC)P(=O)(SCC)N(CC)CC (centres unmarked) [Compound 84] |  |  |  |  |  |  | 75% | 13% | 99% | 5%
26 | CCCN(CCC)P(=O)(SCc1ccccc1)N(CCC)CCC [Compound 95] |  |  |  |  |  |  | 55% | 13% | 80% | 5%
27 | CCCCN(CCCC)P(=O)(SC(C)(C)C)N(CCC)CCC (centres unmarked) [Compound 128] |  |  |  |  |  |  | 38% | 0% | 80% | 0%
28 | CCCCN(CCCC)P(=O)(SCCC)N(C)C (centres unmarked) [Compound 108] |  |  |  |  |  |  | 76% | 13% | 98% | 15%
29 | CCCCN(CCCC)P(=O)(SCC)N(CCCC)CCCC [Compound 82] |  |  |  |  |  |  | 75% | 0% | 99% | 0%
30 | CCCCN(CC)P(=O)(SCCC)N(CCC)CCC (centres unmarked) [Compound 89] |  |  |  |  |  |  | 90% | 7% | 100% | 0%
